# In ChEMBL document CHEMBL1156829 (Proc Natl Acad Sci U S A, 2008):
# Assays:
# Plasmodium falciparum [1] = assay: NOVARTIS: Inhibition of Plasmodium falciparum 3D7 (drug-susceptible) proliferation in erythrocyte-based infection assay; assay type: functional, organism-based; settings: Plasmodium falciparum, 3D7
# Plasmodium falciparum [2] = assay: NOVARTIS: Inhibition of Plasmodium falciparum W2 (drug-resistant) proliferation in erythrocyte-based infection assay; assay type: functional, organism-based
# [3] = NOVARTIS: Cytotoxicity against human hepatocellular carcinoma cell line (Huh7); assay type: toxicity, cell-based, Huh-7; settings: Huh7 cells (hepatocellular carcinoma cell line)
# [4] = Plasmodium falciparum, W2, read-out: EC50
Compound,EC50 (Plasmodium falciparum [1]) [nM],EC50 (Plasmodium falciparum [2]),CC50 [3] [nM],EC50 (Plasmodium falciparum [2]; [4]) [nM]
N=C(N)NN=Cc1cc(Cl)ccc1O,12.8,No fit,> 1860,
O=c1c(=Cc2ccc(Cl)cc2)sc2nc3ccccc3n12,> 436,,> 10000,190
COC(=O)COc1ccc(/C=C2/SC(=Nc3ccc(F)cc3)NC2=O)cc1,> 12500,,> 100000,1850
O=C1c2ccccc2-c2nnc(-c3ccc(Br)cc3)cc21,> 2500,,> 100000,1890
Clc1ncnc2ncn(Cc3ccccc3)c12,1650,,58100,1090
Oc1ccccc1CN1CCN(C(c2ccccc2)c2ccccc2)CC1,744,,8920,166
O=S(=O)(Oc1ccc2ccccc2c1Cc1c(OS(=O)(=O)c2ccccc2)ccc2ccccc12)c1ccccc1,> 12500,,> 100000,1840
Cc1ccc(C(C(=O)NC2CCCCC2)N(C(=O)Cn2nnc3ccccc32)c2ccc(S(=O)(=O)NCC3CCCO3)cc2)o1 (stereo not given),> 12300,,> 100000,1910
CCN1CCC(NCCC(c2ccccc2)c2ccccc2)CC1,280,,3610,66
O=C(O)C=CC(=O)N(C1CCCCC1)C1CCCCC1,> 12500,,> 100000,1860
COc1ccc(C(OCC(=O)N2CCN(Cc3ccccc3)CC2)c2ccc(F)cc2)cn1 (stereo not given),733,,> 10000,187
OCCSc1nc(-c2ccccc2)nc2ccc(F)cc12,> 1250,,> 10000,> 183
Cc1cc(C)cc(NCC(O)Cn2c3ccc(Cl)cc3c3cc(Cl)ccc32)c1 (stereo not given),2220,,31200,569
CCCc1cc(-c2onc(C)c2-c2ccc(C(=O)OCC)o2)c(O)cc1OC,413,,18500,346
O=C(Nc1ccc(-c2nc3ccccc3[nH]2)cc1)c1ccc(Cl)c(Cl)c1,523,,> 100000,1820
COc1cccc(CNCCCCCCCCCCCCNCc2cccc(OC)c2O)c1O,819,,53500,1010
C=CC[n+]1cccc2c3ccccc3ccc21,1720,,> 100000,1900
O=C1NC(=S)N/C1=C/c1cccc(Oc2ccccc2)c1,1880,,> 10000,> 191
Cc1ccc(-n2nnnc2SCc2nc(-c3cccc([N+](=O)[O-])c3)no2)c(C)c1,> 4690,,> 100000,1850
N#Cc1c(N)nc(SCC(=O)c2ccc([N+](=O)[O-])cc2)c(C#N)c1-c1ccccc1,4810,,> 100000,1840
CCCS(=O)(=O)c1c(S(=O)(=O)CCC)c2ccc(C(C)=O)cn2c1C(=O)c1ccc(C)cc1,> 12500,,> 100000,1830
Fc1ccccc1Nc1nc(NCC2CCCO2)c2ccccc2n1 (stereo not given),669,,34200,637
COc1cccc(-c2nc3c(OC)ccc(OC)c3cc2CNCC(C)(C)CN(C)C)c1,244,,> 10000,186
CCCCCCCCC(=O)N(C)CCCNc1ccnc2cc(Cl)ccc12,321,,> 10700,196
CN(C)c1ccc(C=C2SC(=N)N(c3nccs3)C2=O)cc1,5050,,> 100000,1830
CCCCN1Cc2ccc(C(N)=O)cc2N=C1C1CC1,62,,> 11400,212
COc1ccc(-n2c(SC(C)C)nc3sc4c(c3c2=O)CCN(C)C4)cc1,2210,,> 100000,1850
CC(C)Cc1ccc(-c2csc(NC(=O)C3C4CCC(C4)C3C(=O)O)n2)cc1 (stereo not given),772,,> 100000,1850

Compound,EC50 (Plasmodium falciparum [1]) [nM],EC50 (Plasmodium falciparum [2]),CC50 [3] [nM],EC50 (Plasmodium falciparum [2]; [4]) [nM]
O=C(Cc1ccsc1)NC1CCN(CC(O)CN(Cc2ccccc2)S(=O)(=O)c2ccccc2)C1 (stereo not given),411,,> 10000,188
COc1ccc2nc(C)cc(Nc3ccc(Br)cc3)c2c1,201,,19700,369
O=C(Nc1cnc2ccccc2c1)c1cccc(-n2cnnn2)c1,174,,> 10000,182
Cc1nc2ccc(NC(=O)C3CC3)cc2c(=O)n1Cc1ccc(Cl)cc1,1170,,> 100000,1820
COc1ccc(-n2c(CNC(=O)c3cccc4ccccc34)n[nH]c2=S)cc1,1100,,> 100000,1890
Cc1cc(Nc2cc(Cl)cc(Cl)c2)n2nc(C)nc2n1,1330,,> 100000,1870
COC(=O)C1=C(C)NC2=C(C(=O)c3ccccc32)C1c1ccc(OCC#N)c(OC)c1 (stereo not given),590,,84900,1530
CCOc1cc(C(=O)Nc2ccc(-c3nc4ccccc4[nH]3)cc2)cc(OCC)c1OCC,229,,40000,763
CSc1ccc(NC(=O)N2CCCn3cccc3C2c2ccc(C(F)(F)F)cc2)cc1 (stereo not given),3990,,> 100000,1810
CCCC(=O)Oc1ccccc1-c1nc2cc(C)ccn2c1NC(C)(C)CC(C)(C)C,3550,,> 100000,1890
CC(=O)Nc1ccc(S(=O)(=O)NC2C(C)(C)C3CC[C@]2(C)C3)cc1 (stereo not given in full),> 1250,,> 10000,> 184
CCOC(=O)CCC(=O)Oc1cc(C(C)(C)C)nn1-c1ccc(Cl)c(Cl)c1,> 1230,,> 11100,203
O=C(c1ccc([N+](=O)[O-])cc1)C1C(C(=O)c2ccc(F)cc2)C2(C(=O)Nc3ccccc32)C2C=Cc3ccccc3N12 (stereo not given),> 622,,> 10000,188
CC[n+]1c(C)cc2c(sc3ccccc32)c1C,1050,,> 100000,1870
Cn1c(=O)[nH]c(=O)c2c1nc(N1CCCCCC1)n2CC(O)COc1ccc([N+](=O)[O-])cc1 (stereo not given),> 12500,,> 100000,1860
CCCCCOC(=O)C1=C(C)NC2=C(C(=O)CC(C)(C)C2)C1c1ccncc1 (stereo not given),5190,,> 100000,1860
Cc1cccc(NC(=O)C2C3C=CC4(O3)C2C(=O)N(CC2COc3ccccc3O2)C4C(=O)NC2CCCC(C)C2C)c1 (stereo not given),> 8070,,> 100000,1860
Cc1nc(C23CC4CC(CC(C4)C2)C3)cs1,> 12500,,> 100000,1860
COc1cccc(CCOc2ccc3c(c2)C(=O)N(C(C(=O)NC(C)(C)C)c2cccc(OC)c2)C(CO)C(=O)N3)c1 (stereo not given),153,,> 9100,169
CC(c1nc2ccccc2c(=O)n1C)N1CCN(C(=O)C(C)(C)C)CC1 (stereo not given),185,,> 10000,191
CSc1nnc(NC(=O)C2CC2)s1,> 12500,,> 100000,1910
O=C(CSc1nc2ccccc2c(=O)n1CCCN1CCOCC1)Nc1cccc(S(=O)(=O)N2CCCCCC2)c1,470,,62100,1180
CC(Nc1ccccc1)C(=O)Nc1cc(C(F)(F)F)ccc1Cl (stereo not given),1220,,71400,1290
Cc1ccn(CC(=O)N2CCOc3c(cc(-c4csc5ccccc45)cc3OCCc3ccccn3)C2)n1,823,,39000,730
O=C(NN=Cc1ccc(O)cc1O)c1ccncc1,4750,,> 100000,1880
Cc1cccc(-c2nc3cc(NC(=S)NC(=O)c4ccc(Cl)cc4)ccc3o2)c1,> 1660,,> 10000,183
CC(=O)N(C1=C(N(C)C)C(=O)c2ccccc2C1=O)c1cc(C)cc(C)c1,23,,2230,41.5
